This is an account of results in ChEMBL document CHEMBL1127002, “Substituted pyrrolidin-2-one biphenyltetrazoles as angiotensin II antagonists” (Bioorg Med Chem Lett, 1993).

pIC50: −log10 of the molar value. Activity calls are given as the source filed them. No cut-off for these calls is given here.

One experiment relates to Rattus norvegicus. As to the kind of experiment: Tested for antihypertensive activity in spontaneously hypertensive rats (SHR) after oral administration; A - Compound shows antihypertensive activity. In kind it is functional, organism-based.
A further experiment is filed under the species Oryctolagus cuniculus. As to the kind of experiment: Tested for inhibitory activity against angiotensin II induced contraction in rabbit aortic rings. The following applies: Aorta, read-out: pA2 (converted). In kind it is functional.
Experiment [1] deals with T1, Type-1 angiotensin II receptor (Bos taurus, UniProt P25104).
T1 sequence (P25104 whole entry): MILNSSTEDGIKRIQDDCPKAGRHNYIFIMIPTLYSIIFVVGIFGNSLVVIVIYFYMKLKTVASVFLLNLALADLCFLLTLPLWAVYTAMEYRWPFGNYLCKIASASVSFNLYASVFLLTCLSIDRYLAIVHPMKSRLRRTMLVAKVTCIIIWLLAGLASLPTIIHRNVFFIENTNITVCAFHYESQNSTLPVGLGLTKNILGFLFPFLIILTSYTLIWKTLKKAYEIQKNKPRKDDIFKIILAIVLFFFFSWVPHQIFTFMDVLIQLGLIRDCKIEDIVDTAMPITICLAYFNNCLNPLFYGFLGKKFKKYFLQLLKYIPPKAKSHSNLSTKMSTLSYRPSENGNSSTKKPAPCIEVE
As to the kind of experiment: Concentration that gives 50% inhibition for binding of 125-I-[Sar1, IIe8] angiotensin to Angiotensin II receptor, type 1 in bovine adrenal cortex membrane. It is filed as cell membranes.

Turning to `CCOC(=O)/C=C1\C2C3CCCC(CC3)C2C(=O)N1Cc1ccc(-c2ccccc2-c2nn[nH]n2)cc1` (centres undefined), the Activity result with Rattus norvegicus is “A”. Also, in the experiment filed under Oryctolagus cuniculus, the Kb is 20 nM.

On to `CCOC(=O)/C=C1\C2CC=CCC2C(=O)N1Cc1ccc(-c2ccccc2-c2nn[nH]n2)cc1` (centres undefined), for which the Kb in the experiment filed under Oryctolagus cuniculus is 31.6 nM. In experiment [1], `CCOC(=O)/C=C1\N(Cc2ccc(-c3ccccc3-c3nnn[nH]3)cc2)C(=O)CC12CCCCCC2` gave a pIC50 of 7.22. As for `CCOC(=O)/C=C1\C2C(C(=O)N1Cc1ccc(-c3ccccc3-c3nn[nH]n3)cc1)C1CCC2C1(C)C` (centres undefined), the Kb in the experiment listed under Oryctolagus cuniculus was 251 nM. Same read-out and setting: the same measure for `CCOC(=O)/C=C1\C2C3CCC(O3)C2C(=O)N1Cc1ccc(-c2ccccc2-c2nn[nH]n2)cc1` (centres undefined): 3.98 nM.

Consider `CCCCc1nc(Cl)c(CO)n1Cc1ccc(-c2ccccc2-c2nnn[nH]2)cc1` [LOSARTAN], for which the Kb in the experiment filed under Oryctolagus cuniculus is 1.58 nM. Moreover, the negative logarithm of the IC50 (pIC50) in experiment [1] is 6.37. As to `CCOC(=O)/C=C1\N(Cc2ccc(-c3ccccc3-c3nn[nH]n3)cc2)C(=O)CC12CCCCCC2`, the result in the experiment on Rattus norvegicus was Active. Also, the Kb in the experiment listed under Oryctolagus cuniculus is 3.98 nM. Regarding `CCOC(=O)/C=C1\C2C3C=CC(CC3)C2C(=O)N1Cc1ccc(-c2ccccc2-c2nn[nH]n2)cc1` (centres undefined), in the experiment listed under Oryctolagus cuniculus, the Kb was 6.31 nM. Regarding `CCOC(=O)/C=C1\C2C(C(=O)N1Cc1ccc(-c3ccccc3-c3nn[nH]n3)cc1)C1CCC2C1(c1ccccc1)c1ccccc1` (centres undefined), the Kb in the experiment listed under Oryctolagus cuniculus is above 1000 nM.

With `CCOC(=O)/C=C1\C2C3CCC(C3)C2C(=O)N1Cc1ccc(-c2ccccc2-c2nn[nH]n2)cc1` (centres undefined), the Kb in the experiment filed under Oryctolagus cuniculus was 1 nM. As to `CCOC(=O)/C=C1\N(Cc2ccc(-c3ccccc3-c3nn[nH]n3)cc2)C(=O)CC1(C)CC` (centres undefined), the Kb in the experiment filed under Oryctolagus cuniculus was 25.1 nM. In experiment [1], this compound showed a negative logarithm of the IC50 (pIC50) of 7.22. Taken in the same sequence, the figures for `CCOC(=O)/C=C1\N(Cc2ccc(-c3ccccc3-c3nn[nH]n3)cc2)C(=O)CC1(CC)CC` were 12.6 nM and 7.00.

With `CCOC(=O)/C=C1\C2C3C=CC(CCC3)C2C(=O)N1Cc1ccc(-c2ccccc2-c2nn[nH]n2)cc1` (centres undefined), the Kb in the experiment filed under Oryctolagus cuniculus was 39.8 nM. Consider `CCOC(=O)/C=C1/C(C)CC(=O)N1Cc1ccc(-c2ccccc2-c2nn[nH]n2)cc1` (centres undefined), for which, in the experiment filed under Oryctolagus cuniculus, the Kb was 316 nM. Besides, the negative-log IC50 (pIC50) in experiment [1] was 5.51. Take `CCOC(=O)/C=C1\C2C(C(=O)N1Cc1ccc(-c3ccccc3-c3nn[nH]n3)cc1)C1C=CC2(OC)CC1` (centres undefined): in the experiment filed under Oryctolagus cuniculus, the Kb is 5.01 nM.

As to `CCOC(=O)/C=C1\C2CCCCC2C(=O)N1Cc1ccc(-c2ccccc2-c2nn[nH]n2)cc1` (centres undefined), the Kb in the experiment filed under Oryctolagus cuniculus is 3.98 nM. On the same count and under the same terms, as for `CCOC(=O)/C=C1\C2C3C=CC(C3)C2C(=O)N1Cc1ccc(-c2ccccc2-c2nn[nH]n2)cc1` (centres undefined), the figure is 3.98 nM. `CCOC(=O)/C=C1\C2C3CCC(CC3)C2C(=O)N1Cc1ccc(-c2ccccc2-c2nn[nH]n2)cc1` (centres undefined): in the experiment on Rattus norvegicus, the Activity entry is recorded as “A”. For the same compound, the Kb in the experiment filed under Oryctolagus cuniculus was 10 nM. As for `CCOC(=O)/C=C1\N(Cc2ccc(-c3ccccc3-c3nnn[nH]3)cc2)C(=O)CC12CCCCC2`, the Kb in the experiment filed under Oryctolagus cuniculus was 12.6 nM. The compound further gave a negative logarithm of the IC50 (pIC50) in experiment [1] of 6.85. Taken in the same sequence, the figures for `CCOC(=O)/C=C1\N(Cc2ccc(-c3ccccc3-c3nn[nH]n3)cc2)C(=O)CC12CCCC2` were 3.16 nM and 6.60.
